Laboratory results published in patent US8420574B2, “Plant growth enhancement with combinations of PESA and herbicides” (Valent BioSciences Corporation, priority 2009, dated 2013).
Counter-ions that a name gives are not always drawn.

Legend:
rice cv. Nipponbare = assay: Hydroponic assay; total root length and shoot length; type: in vivo; conditions: for Shoot Length / Total Root Length: 40 ppm PESA salt
Method: Where hydroponically-grown rice was used in studies, the seeds were pre-incubated in water at 30 C for 2 days to stimulate germination. Three seeds were placed on a float and cultivated hydroponically in a test tube (25 mm×200 mm), which contained 50 ml of Kimura B nutrient solution at ⅛th strength supplemented with herbicides and PESA sodium salt. The exposure of the roots to the light was prevented by wrapping the tubes with aluminum foil. The rice seedlings were incubated in a growth cabinet at 25 C under continuous light for 14 days, and the total root length and shoot length were measured. Total root length (cm) was the root length/plant determined following scanning with WinRhizo software (Regent Instruments INC, Toronto, Canada).

rice cv. Cheniere = assay: Emergence of seed-treated rice seeded onto soil previously treated with herbicide; type: in vivo; conditions: for Percent Emergence at 9 days after planting: untreated 90
Excerpt: Seed was sieved with a screen of mesh size appropriate to remove broken seeds and small trash. Cracked or otherwise damaged seeds were removed. The seed was well mixed, and 50 g samples were weighed into small plastic trays. […] A fungicide (Maxim XL; Syngenta Agricultural Products, Greensboro, N.C.), a polymeric binder (CF-Clear; Becker-Underwood, Ames, Iowa), and a colorant (Color Coat Red; Becker-Underwood, Ames, Iowa) were also included in the slurry at label rates. A small aliquot of this slurry was applied to the seed using the Hege 11 coater (Wintersteiger, Salt Lake City, Utah) with a six-inch bowl at a slurry rate of 30 ounces per 100 lbs of seed. The slurry was deposited drop-wise on the spinning disk atomizer using a syringe.
Rice cv. […] It was then seeded onto soil which was previously sprayed with the pendimethalin herbicide Prowl H2O® (BASF Agricultural Products, Research Triangle Park, N.C.).
After seed treatment, rice was seeded into soil previously treated with the dithiopyr herbicide Dimension®.
Rice seed treated with PESA was tested for its ability to protect rice from the herbicide Roundup WeatherMax® (glyphosate). After seed treatment, rice was seeded into soil previously treated with the Roundup WeatherMax®.

[1] = 40 ppm PESA salt with 0.1 ppm dicamba
[2] = 40 ppm PESA salt with 0.1 ppm imazosulfuron
[3] = 40 ppm PESA salt with 1 ppm flumioxazin

O=C(O)CCC(=O)NCCc1ccccc1 [PESA salt, N-(2-phenylethyl)succinamic acid]
protection of roots from herbicide (rice cv. Nipponbare; [1]): largely protected the roots from the negative effects of dicamba | protection of shoots from herbicide (rice cv. Nipponbare; [1]): largely protected the shoots from the negative effects of dicamba | total root length increased by, as compared with untreated control (rice cv. Nipponbare; [1]): 61% | protection of roots from herbicide (rice cv. Nipponbare; [2]): largely protected the roots from the negative effects of imazosulfuron | total root length increased by, as compared with untreated control (rice cv. Nipponbare; [2]): 87% | protection of roots from herbicide (rice cv. Nipponbare; [3]): protected the roots from the negative effects of flumioxazin | protection of shoots from herbicide (rice cv. Nipponbare; [3]): largely protected the shoots from the negative effects of flumioxazin | protection of shoots from herbicide (rice cv. Nipponbare; 40 ppm PESA salt with 1 ppm imazosulfuron): largely protected the shoots from the negative effects of the herbicide | protection of roots from herbicide (rice cv. Nipponbare; 40 ppm PESA salt with 3 ppm clodinafop-propargyl): protected the roots from the negative effects of the herbicide | Shoot Length (rice cv. Nipponbare; 0 ppm clodinafop-propargyl, untreated 10.6): 13.3 cm | Total Root Length (rice cv. Nipponbare; 0 ppm clodinafop-propargyl, untreated 52.1): 193.9 cm | Shoot Length (rice cv. Nipponbare; 0 ppm dicamba, untreated 11.4): 15.1 cm | Total Root Length (rice cv. Nipponbare; 0 ppm dicamba, untreated 44.9): 121.9 cm | Shoot Length (rice cv. Nipponbare; 0 ppm flumioxazin, untreated 10.6): 13.3 cm | Total Root Length (rice cv. Nipponbare; 0 ppm flumioxazin, untreated 52.1): 193.9 cm | Shoot Length (rice cv. Nipponbare; 0 ppm imazosulfuron, untreated 11.4): 15.1 cm | Total Root Length (rice cv. Nipponbare; 0 ppm imazosulfuron, untreated 44.9): 121.9 cm | Shoot Length (rice cv. Nipponbare; 0.01 ppm dicamba, untreated 11.4): 15.1 cm | Total Root Length (rice cv. Nipponbare; 0.01 ppm dicamba, untreated 44.9): 155.4 cm | Shoot Length (rice cv. Nipponbare; 0.01 ppm imazosulfuron, untreated 11.4): 14.5 cm | Total Root Length (rice cv. Nipponbare; 0.01 ppm imazosulfuron, untreated 44.9): 169.8 cm | Shoot Length (rice cv. Nipponbare; 0.1 ppm dicamba, untreated 11.4): 12.5 cm | Total Root Length (rice cv. Nipponbare; 0.1 ppm dicamba, untreated 44.9): 72.5 cm | Shoot Length (rice cv. Nipponbare; 0.1 ppm flumioxazin, untreated 10.6): 12.3 cm | Total Root Length (rice cv. Nipponbare; 0.1 ppm flumioxazin, untreated 52.1): 132.6 cm | Shoot Length (rice cv. Nipponbare; 0.1 ppm imazosulfuron, untreated 11.4): 13.2 cm | Total Root Length (rice cv. Nipponbare; 0.1 ppm imazosulfuron, untreated 44.9): 83.8 cm | Shoot Length (rice cv. Nipponbare; 0.3 ppm clodinafop-propargyl, untreated 10.6): 14.3 cm | Total Root Length (rice cv. Nipponbare; 0.3 ppm clodinafop-propargyl, untreated 52.1): 202.6 cm | Shoot Length (rice cv. Nipponbare; 0.3 ppm flumioxazin, untreated 10.6): 10.3 cm | Total Root Length (rice cv. Nipponbare; 0.3 ppm flumioxazin, untreated 52.1): 102.8 cm | Shoot Length (rice cv. Nipponbare; 1 ppm clodinafop-propargyl, untreated 10.6): 13.6 cm | Total Root Length (rice cv. Nipponbare; 1 ppm clodinafop-propargyl, untreated 52.1): 110.5 cm | Shoot Length (rice cv. Nipponbare; 1 ppm dicamba, untreated 11.4): 3.6 cm | Total Root Length (rice cv. Nipponbare; 1 ppm dicamba, untreated 44.9): 9.2 cm | Shoot Length (rice cv. Nipponbare; 1 ppm flumioxazin, untreated 10.6): 7.5 cm | Total Root Length (rice cv. Nipponbare; 1 ppm flumioxazin, untreated 52.1): 53 cm | Shoot Length (rice cv. Nipponbare; 1 ppm imazosulfuron, untreated 11.4): 7.9 cm | Total Root Length (rice cv. Nipponbare; 1 ppm imazosulfuron, untreated 44.9): 13.8 cm | Shoot Length (rice cv. Nipponbare; 3 ppm clodinafop-propargyl, untreated 10.6): 11.8 cm | Total Root Length (rice cv. Nipponbare; 3 ppm clodinafop-propargyl, untreated 52.1): 44.3 cm | Shoot Length (rice cv. Nipponbare; 3 ppm flumioxazin, untreated 10.6): 6.5 cm | Total Root Length (rice cv. Nipponbare; 3 ppm flumioxazin, untreated 52.1): 24.4 cm | Percent Emergence at 12 days after planting (rice cv. Cheniere; Dimension (dithiopyr) 0.25 pints/acre, seed treatment none (Control), 1 g GA3 and/or 50 g PESA salt per 100 lbs of seed, untreated 72.1): 61.0% | Percent Emergence at 12 days after planting (rice cv. Cheniere; Dimension (dithiopyr) 0.5 pints/acre, seed treatment none (Control), 1 g GA3 and/or 50 g PESA salt per 100 lbs of seed, untreated 72.1): 13.9% | protection of emergence from glyphosate (rice cv. Cheniere; PESA seed treatment, soil treated with Roundup WeatherMax, at 90 μg/cm^2): could protect the rice seedlings from glyphosate | Percent Emergence at 12 days after planting (rice cv. Cheniere; Prowl (pendimethalin) 0.25 pints/acre, seed treatment none (Control), 1 g GA3 and/or 50 g PESA salt per 100 lbs of seed, untreated 84.5): 79.0% | Percent Emergence at 12 days after planting (rice cv. Cheniere; Prowl (pendimethalin) 0.5 pints/acre, seed treatment none (Control), 1 g GA3 and/or 50 g PESA salt per 100 lbs of seed, untreated 84.5): 80.7% | Percent Emergence at 12 days after planting (rice cv. Cheniere; Prowl (pendimethalin) 2 pints/acre, seed treatment none (Control), 1 g GA3 and/or 50 g PESA salt per 100 lbs of seed, untreated 84.5): 61.0% | Percent Emergence at 12 days after planting (rice cv. Cheniere; no Dimension (Control), seed treatment 1 g GA3 and/or 50 g PESA salt per 100 lbs of seed, untreated 72.1): 77.2% | Percent Emergence at 12 days after planting (rice cv. Cheniere; no Prowl (Control), seed treatment 1 g GA3 and/or 50 g PESA salt per 100 lbs of seed, untreated 84.5): 86.1% | Percent Emergence at 9 days after planting (rice cv. Cheniere; seed treatment 25 g PESA salt per 100 kg of seed, glyphosate 0 μg/cm2): 80% | Percent Emergence at 9 days after planting (rice cv. Cheniere; seed treatment 25 g PESA salt per 100 kg of seed, glyphosate 23 μg/cm2): 84% | Percent Emergence at 9 days after planting (rice cv. Cheniere; seed treatment 25 g PESA salt per 100 kg of seed, glyphosate 90 μg/cm2): 28% | Percent Emergence at 9 days after planting (rice cv. Cheniere; seed treatment 50 g PESA salt per 100 kg of seed, glyphosate 0 μg/cm2): 92% | Percent Emergence at 9 days after planting (rice cv. Cheniere; seed treatment 50 g PESA salt per 100 kg of seed, glyphosate 23 μg/cm2): 78% | Percent Emergence at 9 days after planting (rice cv. Cheniere; seed treatment 50 g PESA salt per 100 kg of seed, glyphosate 90 μg/cm2): 38% | protection of emergence from pendimethalin (rice cv. Cheniere; seed treatment, soil sprayed with Prowl H2O, particularly at 2 pints/acre): could protect the rice seedlings from pendimethalin | protection of emergence from dithiopyr (rice cv. Cheniere; seed treatment, soil treated with Dimension, particularly at 0.25 and 0.5 pints/acre): could protect the rice seedlings from dithiopyr
